According to US20050059585A1, “Methionine aminopeptidase-2 inhibitors and methods of use thereof” (Praecis Pharmaceuticals Inc., priority 2000, published 2005):

How the values were obtained:
Test in all cases: tumor cell line panel, SRB growth assay
Format in all cases: cell-based
ACHN = settings: Homo sapiens, Renal, 48 hours
Procedure: (§1) The compound of example 5 was also evaluated against a panel of cancer cell lines (Alley, M.C. et al. […] Cancer Research 48: 589-601; Grever, M. R., et al. (1992) Seminars in Oncology, Vol. 19, No. 6, pp 622-638; Boyd, M. R., and Paull, K. D. (1995) Drug Development Research 34: 91-109). The human tumor cell lines of the cancer screening panel were grown in RPMI 1640 medium containing 5% fetal bovine serum and 2 mM L-glutamine. Cells were inoculated into 96 well microtiter plates in 100 μL at plating densities ranging from 5,000 to 40,000 cells/well depending on the doubling time of individual cell lines. After cell inoculation, the microtiter plates were incubated at 37° C., 5 % CO2, 95 % air and 100 % relative humidity for 24 hours prior to addition of experimental drugs.
(§2) After the 24 hour incubation period, two plates of each cell line were fixed in situ with TCA, to represent a measurement of the cell population for each cell line at the time of drug addition (Tz). Experimental drugs were solubilized in dimethyl sulfoxide at 400-fold the desired final maximum test concentration and stored frozen prior to use. At the time of drug addition, an aliquot of frozen concentrate was thawed and diluted to twice the desired final maximum test concentration with complete medium containing 50 μg/ml gentamicin. Additional four, 10-fold or ½ log serial dilutions were made to provide a total of five drug concentrations plus control. Aliquots of 100 μl of these different drug dilutions were added to the appropriate microtiter wells already containing 100 μl of medium, resulting in the required final drug concentrations.
(§3) Following drug addition, the plates were incubated for an additional 48 hours at 37° C., 5 % CO2, 95 % air, and 100 % relative humidity. For adherent cells, the assay was terminated by the addition of cold TCA. Cells were fixed in situ by the gentle addition of 50 μl of cold 50 % (w/v) TCA (final concentration, 10% TCA) and incubated for 60 minutes at 4° C. The supernatant was discarded, and the plates were washed five times with tap water and air dried. Sulforhodamine B (SRB) solution (100 μl) at 0.4 % (w/v) in 1 % acetic acid were added to each well, and plates were incubated for 10 minutes at room temperature. After staining, unbound dye was removed by washing five times with 1 % acetic acid and the plates were air dried. Bound stain was subsequently solubilized with 10 mM trizma base, and the absorbance was read on an automated plate reader at a wavelength of 515 nm. For suspension of the cells, the methodology used was the same except that the assay was terminated by fixing settled cells at the bottom of the wells by gently adding 50 μl of 80 % TCA (final concentration, 16% TCA). Using the seven absorbance measurements [time zero, (Tz), control growth, (C), and test growth in the presence of drug at the five concentration levels (Ti)], the percentage growth was calculated at each of the drug concentrations levels.
(§4) Percentage growth inhibition was calculated as: [(Ti−Tz)/(C−Tz)]×100 for concentrations for which Ti>/=Tz [(Ti−Tz)/Tz]×100 for concentrations for which Ti<Tz.
(§5) Growth inhibition of 50% (GI50) was calculated from [(Ti−Tz)/(C−Tz)]×100=50, which is the drug concentration resulting in a 50% reduction in the net protein increase (as measured by SRB staining) in control cells during the drug incubation. The G150 was calculated for each of the cell lines if the level of activity is reached; however, if the effect was not reached or is exceeded, the value for that parameter is expressed as greater or less than the maximum (10^−4 M) or minimum (10^−8 M) concentration tested.

EKVX = settings: Homo sapiens, Non-Small Cell Lung, 48 hours
Procedure: as §1, §2, §3, §4, §5

HOP-62 = settings: Homo sapiens; HOP-62, Non-Small Cell Lung, 48 hours
Procedure: as §1, §2, §3, §4, §5

HS 578T = settings: Homo sapiens, Breast, 48 hours
Procedure: as §1, §2, §3, §4, §5

K-562 = settings: Homo sapiens, K562; K-562, Leukemia, 48 hours
Procedure: as §1, §2, §3, §4, §5

M14 = settings: Homo sapiens; M14, Melanoma, 48 hours
Procedure: as §1, §2, §3, §4, §5

MDA-MB-231/ATCC = settings: Homo sapiens, Breast, 48 hours
Procedure: as §1, §2, §3, §4, §5

NCI-H522 = settings: Homo sapiens; NCI-H522, Non-Small Cell Lung, 48 hours
Procedure: as §1, §2, §3, §4, §5

NCI/ADR-RES = settings: Homo sapiens, Breast, 48 hours
Procedure: as §1, §2, §3, §4, §5

OVCAR-3 = settings: Homo sapiens; OVCAR-3, Ovarian, 48 hours
Procedure: as §1, §2, §3, §4, §5

PC-3 = settings: Homo sapiens; PC-3, Prostate, 48 hours
Procedure: as §1, §2, §3, §4, §5

RPMI-8226 = settings: Homo sapiens; RPMI-8226, Leukemia, 48 hours
Procedure: as §1, §2, §3, §4, §5

RXF 393 = settings: Homo sapiens; RXF 393, Renal, 48 hours
Procedure: as §1, §2, §3, §4, §5

SF-268 = settings: Homo sapiens; SF-268, CNS, 48 hours
Procedure: as §1, §2, §3, §4, §5

SF-295 = settings: Homo sapiens; SF-295, CNS, 48 hours
Procedure: as §1, §2, §3, §4, §5

SK-MEL-28 = settings: Homo sapiens; SK-MEL-28, Melanoma, 48 hours
Procedure: as §1, §2, §3, §4, §5

SK-MEL-5 = settings: Homo sapiens; SK-MEL-5, Melanoma, 48 hours
Procedure: as §1, §2, §3, §4, §5

SNB-75 = settings: Homo sapiens; SNB-75, CNS, 48 hours
Procedure: as §1, §2, §3, §4, §5

SR = settings: Homo sapiens, Leukemia, 48 hours
Procedure: as §1, §2, §3, §4, §5

TK-10 = settings: Homo sapiens; TK-10, Renal, 48 hours
Procedure: as §1, §2, §3, §4, §5

UACC-257 = settings: Homo sapiens; UACC-257, Melanoma, 48 hours
Procedure: as §1, §2, §3, §4, §5

`CO[C@@H]1[C@H](OC(=O)N[C@@H](C(N)=O)C(C)C)CC[C@]2(CO2)[C@H]1[C@@]1(C)O[C@@H]1CC=C(C)C` [Example 5, (1-Carbamoyl-2-methyl-propyl)-carbamic acid-(3R, 4S, 5S, 6R )-5-methoxy-4-[(2R, 3R)-2-methyl-3-(3-methyl-but-2-enyl)-oxiranyl]-1-oxa-spiro[2.5]oct-6-yl ester] was tested, and the GI50 (ACHN) was < 0.01 µM, the GI50 (EKVX) was 20.8 µM and the GI50 (HOP-62) was < 0.01 µM. The GI50 (HS 578T) was 1.15 µM, the GI50 (K-562) was 64.4 µM and the GI50 (M14) was < 0.01 µM. The GI50 (MDA-MB-231/ATCC) was < 0.01 µM, the GI50 (NCI-H522) was 12.9 µM and the GI50 (NCI/ADR-RES) was 34.2 µM. For the same molecule, the GI50 (OVCAR-3) was 41.8 µM, the GI50 (PC-3) was 18 µM and the GI50 (RPMI-8226) was < 0.01 µM. For the same molecule, the GI50 (RXF 393) was 40.2 µM, the GI50 (SF-268) was 26.1 µM and the GI50 (SF-295) was < 0.01 µM. For the same molecule, the GI50 (SK-MEL-28) was 5.96 µM, the GI50 (SK-MEL-5) was > 100 µM and the GI50 (SNB-75) was 90.9 µM. For the same molecule, the GI50 (SR) was < 0.01 µM, the GI50 (TK-10) was 0.0543 µM and the GI50 (UACC-257) was 1.48 µM.
